Measured values as given in US12502362B2, “Inhibitors of nucleotidyltransferase superfamily enzymes as antibiotics” (priority 2017, dated 2025).
Values after ≈ are worked out from the molar mass of the structure shown. Like-named read-outs stand apart in the source and are kept apart here.

Assays:
[1] = test system: E. coli (ATCC 35218); assay: microbe, parasite or virus in culture; assay type: cell-based; settings: for MIC80: Escherichia coli, ATCC35218, read-out: MIC80 E. coli, E. coli ATCC 35218; for MIC80 E. coli: E. coli ATCC 35218
Description: (§1) To further characterize the compounds, the minimal inhibitory concentration (MIC80) were determined for selected compounds. MIC80 is defined as the compound concentration at which ≥80% bacterial growth is inhibited compare to untreated controls. Meanwhile, for the selected compounds, cytotoxicity assays (CC50) were performed on a HepG2-derived hepatoblastoma cell line (HEPDES19). […] For CC50 evaluation, soluble tetrazolium dye (MTS) was used to measure mitochondrial toxicity in a human hepatoblastoma cell line (18). The bacteria (E. coli, S. saprophyticus and A. baumannii) used in MIC80 measurements were the same as that in the primary screening, but for Staphylococcus, S. aureus is used primarily because it is a common pathogen in Staphylococcaeae family, while S. saprophyticus is part of the normal human flora.

[2] = test system: Acinetobacter baumannii (Abl, from a patient); assay: microbe, parasite or virus in culture; assay type: cell-based; settings: for MIC80 A. baumannii: A. baumannii Ab1, MDR patient isolate; for MIC80: Acinetobacter baumannii, read-out: MIC80 A. baumannii, A. baumannii Ab1, MDR patient isolate
Description: as §1

[3] = Cytotoxicity assay (CC50), MTS; assay type: cell-based, human; settings: human, HepG2-derived hepatoblastoma cell line (HEPDES19), HEPDES19 cells
Description: as §1

[4] = test system: S. aureus (ATCC 29213); assay: MIC80 on S. aureus; assay type: cell-based, Staphylococcus aureus; settings: ≥80% growth inhibition; for MIC80: Staphylococcus aureus, ATCC 29213 / MSSA, read-out: MIC80 S. aureus, S. aureus ATCC 29213 (MSSA); for MIC80 S. aureus: S. aureus ATCC 29213 (MSSA)
Description: as §1

[5] = test system: S. aureus and/or S. saprophyticus; assay: MIC80 on S. aureus and/or S. saprophyticus; assay type: cell-based; settings: read-out: MIC80 against S. aureus and/or S. saprophyticus
Description: as §1, with “(HEPDES19). […] For the MIC80 measurements, a 1.5 fold dilution series of the compounds was prepared in Mueller-Hinton II broth.” for “(HEPDES19).”, “flora. S. aureus (ATCC 29213) is methicillin-sensitive Staphylococcus aureus (MSSA) strain and it was used as a model strain to measure the MIC80.” for “flora.”

[6] = test system: HepG2-derived hepatoblastoma cell line (HEPDES19); assay: Cytotoxicity assay (CC50), MTS; assay type: cell-based, human; settings: HEPDES19 cells
Description: as §1

[7] = test system: Staphylococcus saprophyticus (ATCC BAA-750); assay: MIC80 on S. saprophyticus; assay type: cell-based; settings: Staphylococcus saprophyticus, ATCCBAA750; S. saprophyticus ATCC BAA-750; read-out: MIC80 S. sapro
Description: as §1

[8] = test system: S. aureus ATCC strains and MRSA; assay type: cell-based, Staphylococcus aureus
[9] = test system: Staphylococcus hominis; assay type: cell-based
Description: (§2) It was also tested whether compounds #63 and #285 can inhibit other coagulase-negative Staphylococcus (CNS) including S. epidermidis, S. hominis, etc. […].

[10] = test system: Staphylococcus epidermidis; assay type: cell-based
Description: as §2

[11] = test system: Coagulase negative Staphylococcus; assay: Antibiotic susceptibility of coagulase negative Staphylococcus strains; assay type: cell-based

Cc1cc(O)c(O)c(=O)c(O)c1 [Compound 272]
MIC80 [1]: 44.4 µM (≈ 7.47 µg/mL) | MIC80 A. baumannii [2]: 29.6 µM (≈ 4.98 µg/mL) | MIC80 [2]: < 30 µM | CC50 [3]: 10 µM

O=C(Oc1cccccc1=O)c1cccc(Cl)c1 [Compound 282]
MIC80 [1]: > 100 µM | CC50 [3]: > 50 µM | MIC80 [4]: 18.2 µM (≈ 4.74 µg/mL) | MIC80 [5]: < 20 µM

Cc1cccc(C(=O)Oc2cccccc2=O)c1 [Compound 283]
MIC80 [1]: > 100 µM | CC50 [3]: > 50 µM | CC50 [6]: ≥ 100 µM | MIC80 [4]: 15.4 µM (≈ 3.7 µg/mL) | MIC80 [5]: < 20 µM

Cc1cc(O)c(=O)c(O)cc1C(=O)c1cccs1 [Compound 308]
MIC80 E. coli [1]: 24.7 µM (≈ 6.48 µg/mL) | MIC80 [1]: < 30 µM | MIC80 [2]: 32.1 µM (≈ 8.42 µg/mL) | CC50 [3]: < 50 µM | CC50 [6]: 26 µM | MIC80 [4]: 44.4 µM (≈ 11.6 µg/mL) | MIC80 [7]: 29.6 µM (≈ 7.76 µg/mL)

Cc1cc(O)c(=O)c(O)cc1C(=O)C1CC1 [Compound 310]
MIC80 E. coli [1]: 29.6 µM (≈ 6.52 µg/mL) | MIC80 [1]: < 30 µM | MIC80 A. baumannii [2]: 29.6 µM (≈ 6.52 µg/mL) | MIC80 [2]: < 30 µM | CC50 [3]: > 50 µM | MIC80 [7]: 44.4 µM (≈ 9.78 µg/mL)

Cc1cc(O)c(=O)c(O)cc1C(=O)c1ccccc1O [Compound 311]
MIC80 E. coli [1]: 29.6 µM (≈ 8.06 µg/mL) | MIC80 [1]: < 30 µM | MIC80 [2]: 44.4 µM (≈ 12.1 µg/mL) | CC50 [3]: < 50 µM | CC50 [6]: 32 µM | MIC80 [4]: 66.7 µM (≈ 18.2 µg/mL)

CC(=O)c1c(C)cc(O)c(=O)c(O)c1-c1ccc2ccccc2c1 [Compound 332]
CC50 [6]: 38 µM | MIC80 S. aureus [4]: 19.8 µM (≈ 6.34 µg/mL)

O=c1c(Br)cc(Br)cc(Br)c1O [Compound 350]
MIC80 [1]: 100 µM (≈ 35.9 µg/mL) | MIC80 [2]: 100 µM (≈ 35.9 µg/mL) | CC50 [3]: < 50 µM | CC50 [6]: 45 µM | MIC80 [4]: 2.6 µM (≈ 0.933 µg/mL) | MIC80 [5]: < 20 µM

O=C(O)c1cn(Cc2cccc3ccccc23)c2ccccc2c1=O [Compound 432]
MIC80 [4]: 13.2 µM (≈ 4.35 µg/mL) | MIC80 [5]: < 20 µM

O=C(Cc1ccccc1)Sc1cccccc1=O [Compound 680]
MIC80 E. coli [1]: 19.8 µM (≈ 5.08 µg/mL) | CC50 [6]: > 100 µM | MIC80 S. aureus [4]: 29.6 µM (≈ 7.59 µg/mL)

O=C(Sc1cccccc1=O)c1ccc(C(F)(F)F)cc1 [Compound 682]
MIC80 E. coli [1]: 66.7 µM (≈ 20.7 µg/mL) | CC50 [6]: 82.9 µM | MIC80 S. aureus [4]: 19.8 µM (≈ 6.14 µg/mL)

Cc1ccc(S(=O)(=O)Oc2cc(C(C)C)cccc2=O)cc1 [Compound 688]
MIC80 E. coli [1]: >100 µM | CC50 [6]: 27.5 µM | MIC80 S. aureus [4]: 11.6 µM (≈ 3.69 µg/mL)

CN[C@H](CC(C)C)C(=O)N[C@H]1C(=O)N[C@@H](CC(N)=O)C(=O)N[C@H]2C(=O)N[C@H]3C(=O)N[C@H](C(=O)N[C@H](C(=O)O)c4cc(O)cc(O)c4-c4cc3ccc4O)[C@H](O)c3ccc(c(Cl)c3)Oc3cc2cc(c3O[C@@H]2O[C@H](CO)[C@@H](O)[C@H](O)[C@H]2O[C@H]2C[C@](C)(N)[C@H](O)[C@H](C)O2)Oc2ccc(cc2Cl)[C@H]1O [VAN, vancomycin]
Antibiotic susceptibility ([8]; S. aureus ATCC 25923): S | Antibiotic susceptibility ([8]; S. aureus ATCC 29213): S | Antibiotic susceptibility ([8]; S. aureus ATCC BAA 976): S | Antibiotic susceptibility ([8]; S. aureus ATCC BAA 977): S | Antibiotic susceptibility ([8]; S. aureus ATCC BAA 1026): S | Antibiotic susceptibility ([8]; Sa1 (MRSA)): S | Antibiotic susceptibility ([8]; Sa2 (MRSA)): S | Antibiotic susceptibility ([8]; Sa3 (MRSA)): S | Antibiotic susceptibility ([8]; Sa5 (MRSA)): S | Antibiotic susceptibility ([8]; Sa6 (MRSA)): S | Antibiotic susceptibility ([8]; Sa7 (MRSA)): S | Antibiotic susceptibility ([8]; Sa8 (MRSA)): S | Antibiotic susceptibility ([8]; Sa9 (MRSA)): S | Antibiotic susceptibility ([8]; Sa10 (MRSA)): S | Antibiotic susceptibility ([8]; Sa11 (MRSA)): S | Antibiotic susceptibility ([8]; Sa12 (MRSA)): S | Antibiotic susceptibility ([8]; Sa14 (MRSA)): S | Antibiotic susceptibility ([8]; Sa15 (MRSA)): S | Antibiotic susceptibility ([8]; Sa16 (MRSA)): S | Antibiotic susceptibility ([8]; Sa17 (MRSA)): S | Antibiotic susceptibility ([8]; Sa18 (MRSA)): S | Antibiotic susceptibility ([8]; Sa19 (MRSA)): S | Antibiotic susceptibility ([8]; Sa20 (MRSA)): S | Antibiotic susceptibility ([8]; Sa21 (MRSA)): S | Antibiotic susceptibility ([8]; Sa22 (MRSA)): S | Antibiotic susceptibility ([8]; Sa23 (MRSA)): S | Antibiotic susceptibility ([9]; Sh1 (Staphylococcus hominis)): S | Antibiotic susceptibility ([9]; Sh2 (Staphylococcus hominis)): S | Antibiotic susceptibility ([9]; Sh3 (Staphylococcus hominis)): S | Antibiotic susceptibility ([10]; Se1 (Staphylococcus epidermidis)): S | Antibiotic susceptibility ([10]; Se2 (Staphylococcus epidermidis)): S | Antibiotic susceptibility ([10]; Se3 (Staphylococcus epidermidis)): S | Antibiotic susceptibility ([10]; Se4 (Staphylococcus epidermidis)): S | Antibiotic susceptibility ([10]; Se5 (Staphylococcus epidermidis)): S | Antibiotic susceptibility ([11]; CNS1 (Coagulase negative Staphylococcus)): S | Antibiotic susceptibility ([11]; CNS2 (Coagulase negative Staphylococcus)): S
